Test results published in patent US20240293387A1, “Methods of Treating Fabry Disease in Pediatric Patients” (Amicus Therapeutics, Inc., priority 2021, published 2024).
Like-named read-outs stand apart in the source and are kept apart here.

Tests used:
[1] = Population PK (popPK) model of migalastat in adults (NONMEM, bootstrap); set-up: species or system human
Experimental: A population pharmacokinetics (popPK) model previously developed from healthy adult volunteers and adult patients with Fabry disease after oral migalastat administration. After pooling plasma concentration-time data from Phase I, II, and III studies of AT1001 administered orally in adults using a range of doses from 25 mg to 675 mg and regimens under fasting conditions. […] In contrast, other covariates such as sex, age, drug formulation (solution or suspension vs 25 mg capsule vs 150 mg capsule) were not statistically/clinically significant. Since renal function gradually increases from birth and reaches adult levels by the second year of life (Rubin 1949), there are no expected age-dependent changes in eGFR in the pediatric population 2 years and older than adults. Additionally, pediatric patients with Fabry disease usually have a normal renal function or may experience renal hyperfiltration (Hopkin 2008); therefore, weight-based dosing regimens, assuming that pediatrics have a normal renal function, were planned for the simulations in pediatric Fabry patients. NONMEM program was used to develop the population PK model of migalastat in adults using first-order conditional estimation with interaction (FOCE-I). Simulations were conducted using NONMEM to obtain plasma concentration-time; all graphical analyses were performed using R; noncompartmental analysis and pharmacokinetic parameters summaries were conducted using Phoenix WinNonlin. Bootstrapping and visual predictive checks (VPC)s were conducted using Perl-speaks-NONMEM (PsN) R packages of popED and mrgsolve were used in the optimal sampling strategy. […] The overall purpose of the model development was to come up with a model for pediatric extrapolation. […] Moreover, pediatric CLT/F values extrapolated from the non-renal model were higher than the overall CLT/F approach, resulting in higher pediatric doses for achieving equivalent exposures with adults which was a less conservative approach. Therefore, the overall CLT/F scaling approach is more conservative and was chosen for the final model, which is shown in Table 6. The estimated parameters from bootstrap (see Table 6) were nearly identical to those estimated from the original dataset. All parameters were estimated with adequate precision.

[2] = test system: patients with Fabry disease with amenable mutations; assay type: in vivo, human
Experimental: These analyses included data from 4 Phase 2 and 4 Phase 3 clinical trials with the data cutoff of Feb.
FAB-CL-202 (NCT00283959), FAB-CL-203 (NCT00283933), and FAB-CL-204 (NCT00304512) were phase 2, open-label, noncomparative studies that evaluated the safety, tolerability, pharmacokinetics (PK), and pharmacodynamics (PD) of migalastat (dose range: 50-250 mg) in patients with Fabry disease.
FAB-CL-205 (NCT0052607) was a phase 2, long-term, open-label extension (OLE) study for patients completing phase 2 clinical trials, including FAB-CL-202, FAB-CL-203, and FAB-CL-204. The study included a period with migalastat 150 mg every other day (QOD), then a dose-escalation period, followed by 150 mg QOD.
FACETS (AT1001-011, NCT00925301) was a phase 3, placebo-controlled study designed to evaluate the efficacy, safety, and PD of 6 months of migalastat 150 mg QOD versus placebo, followed by an 18-month open label extension (OLE) of migalastat in ERT-naive patients with Fabry disease and migalastat-amenable GLA variants.
AT1001-041 (NCT01458119) was a long-term OLE study evaluating the long-term safety and efficacy of migalastat in patients completing FAB-CL-205, AT1001-011, or AT1001-012
AT1001-042 (NCT02194985) is an ongoing, long-term OLE study evaluating the long-term safety and efficacy of migalastat in patients who participated in AT1001-012 or AT1001-041.
The analysis evaluates CBV events reported as treatment-emergent adverse events (TEAEs) during migalastat 150 mg QOD treatment in patients with amenable mutations in phase 2 and phase 3 clinical trials.
CBV events were identified by searching medical history and TEAE listings with stroke-related terms, including brain stem ischemia, cerebral infarction, cerebral hemorrhage, cerebral ischemia, cerebrovascular accident, embolic stroke, and TIA.
Only amenable patients who received at least 1 dose of migalastat 150 mg QOD were included in this analysis.

[3] = AT1001-020 Stage 1 pharmacokinetics (sparse plasma sampling, LC-MS/MS, popPK); assay type: in vivo, human
Experimental: Migalastat levels can be measured via methods known in the art. For example, if measuring migalastat from tissue samples, tissue aliquots may be homogenized (7 μL water per 1 mg tissue) using a homogenizer (e.g., FastPrep-24 from MP Biomedical, Irvine, CA). Microcentrifuge tubes containing 100 μl of the tissue homogenate or 50 μl of plasma may then be spiked with 500 ng/ml 13C d2-AT1001 HCl internal standard (manufactured by MDS Pharma Services). A 600 μl volume of 5 mM HCl in 95/5 MeOH:H2O can then be added and the tubes vortexed for 2 minutes, followed by centrifugation at 21000×g for 10 minutes at room temperature. […] After several wash steps and elution into a clean, 96-well plate, the extracts may be dried down under N2 and reconstituted with mobile phase A. Migalastat levels can then be determined by liquid chromatography-tandem mass spectroscopy (LC-MS/MS) (e.g., LC: Shimadzu; MS/MS: ABSciex API 5500 MS/MS). […] The following precursor ion->product ion transitions may be monitored: mass/charge (m/z) 164.1→m/z 80.1 for migalastat and m/z 167.1→m/z 83.1 for the internal standard. […] The ratio of the area under the curve for migalastat to that of the internal standard is then determined and final concentrations of migalastat in each sample calculated using the linear least squares fit equation applied to the calibration curve. […]
Plasma samples were analyzed using the LC-MS/MS method. […]

[4] = 150 mg QOD, FAB-CL 202, 203, 204, and 205 (n = 17)

## OC[C@H]1NC[C@H](O)[C@@H](O)[C@H]1O [migalastat, (2R,3S,4R,5S)-2-(hydroxymethyl) piperdine-3,4,5-triol]
[1]; body weights between 50 and 170 kg
  Average difference in migalastat exposure with subject weight: < 2 fold
[1]; oral, regardless of the absorption model chosen
  Time within which the drug is considered fairly fully absorbed: 7 to 10 h
[2]; 150 mg QOD, ATTRACT (n = 49)
  Any CBV event during treatment, unique patients: 2 (4%)
  Brain stem ischemia during treatment, patients: 0
  Cerebral hemorrhage during treatment, patients: 0
  Cerebral infarction during treatment, patients: 0
  Cerebral ischemia during treatment, patients: 0
  Cerebrovascular accident during treatment, patients: 0
  Embolic stroke during treatment, patients: 0
  Transient ischemic attack during treatment, patients: 2 (4%)
[2]; [4]
  Any CBV event during treatment, unique patients: 3 (18%)
  Brain stem ischemia during treatment, patients: 0
  Cerebral hemorrhage during treatment, patients: 0
  Cerebral infarction during treatment, patients: 1 (6%)
  Cerebral ischemia during treatment, patients: 1 (6%)
  Cerebrovascular accident during treatment, patients: 1 (6%)
  Embolic stroke during treatment, patients: 0
  Transient ischemic attack during treatment, patients: 1 (6%)
[2]; 150 mg QOD, FACETS (n = 48)
  Any CBV event during treatment, unique patients: 3 (6%)
  Brain stem ischemia during treatment, patients: 1 (2%)
  Cerebral hemorrhage during treatment, patients: 1 (2%)
  Cerebral infarction during treatment, patients: 0
  Cerebral ischemia during treatment, patients: 0
  Cerebrovascular accident during treatment, patients: 0
  Embolic stroke during treatment, patients: 0
  Transient ischemic attack during treatment, patients: 1 (2%)
[2]; 150 mg QOD, N = 114
  Number of CBV events reported during treatment: 11
[2]; 150 mg QOD, Total (N = 114)
  Brain stem ischemia during treatment, patients: 1 (1%)
  Cerebral hemorrhage during treatment, patients: 1 (1%)
  Cerebral infarction during treatment, patients: 1 (1%)
  Cerebral ischemia during treatment, patients: 1 (1%)
  Cerebrovascular accident during treatment, patients: 1 (1%)
  Embolic stroke during treatment, patients: 0
  Transient ischemic attack during treatment, patients: 4 (4%)
[2]; 150 mg QOD, of 11 CBV events
  CBV events categorized as serious adverse events (SAE): Seven
  CBV events considered related to treatment: None
  CBV events mild or moderate in severity: 82%
  CBV events that led to treatment discontinuation: Two
[2]; 8 patients with CBV events
  Time on migalastat 150 mg QOD at first event onset, mean (SD): 1.1 (1.1) years
[2]; among the 16 patients with pre-migalastat CBV event
  Patients with pre-migalastat CBV event who did not experience new CBV event during treatment: 10 (63%)
[2]; average of 4 years of migalastat
  Overall incidence of CBV events during migalastat treatment: low
[3]; 123 mg capsule QOD
  Cmax levels observed in the pediatric patients versus adults in study AT1001-011: in line with the Cmax levels observed in adults patients
[3]; 123 mg capsule q.o.d., adolescent patients (n=9)
  Exposure in adults and adolescents weighing >45 kg (popPK): comparable
